We go through two compounds from patent publication US6544727B1, “Methods and devices for the removal of psoralens from blood products” (Cerus Corporation, priority 1995, dated 2003).

Where two headings read alike, the source gives them in different places.

Series [1] concerns Salmonella tester strain TA97a. A digest of the protocol: (§1)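 Pre-incubation Ames method: overnight culture plus 10% Aroclor 1254-induced rat liver S-9 mix or 0.2M phosphate buffer pH 7.4, with test solutions of 0–500 μg/mL, shaken 20 min at 37° C. Plated in histidine/biotin top agar on minimal glucose agar, revertant colonies counted after 44 h at 37° C against spontaneous-revertant background.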

Series [2] deals with Salmonella tester strain TA100. A digest of the protocol: as §1
For series [3], the system named is platelets. Description: Platelet aggregation (ADP and collagen), aggregometer. Type of series: cell-based, human. The conditions noted are these: 100 μM compound, 5 Joules/cm^2, 5 days storage; FIG. 21B. The protocol:
To measure the effects of the present compounds and methods of decontamination on platelet function using these four indicators, four samples were prepared for each compound tested, two control samples and two containing compound. Three units of human platelets were obtained from the Sacramento Blood Center, Sacramento, Calif. These were each transferred under sterile conditions to 50 ml centrifuge tubes, then aliquots of each unit were transferred into a second set of 50 ml sterile centrifuge tubes. To each centrifuge tube containing platelet concentrate (PC), an aliquot of compound stock was added to reach a final concentration of 100 μM of compound. […] The samples were pipetted gently up and down to mix. Then aliquots (either 3 ml or 8 ml) of each sample was transferred to two sterile Teflon™ Medi-bags™ (American Fluoroseal Co., Silver Springs, Md.) (presently owned by The West Company, Lionville, Pa.). Samples were treated in one of two different sized bags, having either 3 ml or 8 ml capacity. […] For each compound tested, two control samples without compound were prepared by again removing aliquots of platelet concentrate (17 ml if using an 8 ml bag, 4 ml if using a 3 ml bag) from the same one of the first set of 50 ml centrifuge tubes from which the compound sample was drawn, and dividing into Medibags, as before. […]

Series [4] is described as follows: HPLC of residual S-59 and photoproducts after RD containing Dowex XUS-43493 (Table N). Type of series: physicochemical. The protocol: […] The unbound photoproducts can be monitored and quantified using a standard HPLC assay.
Samples were prepared for HPLC analysis according to the general procedure described in Example 39, infra. Briefly, the assay involved an initial sample preparation which lyses the platelets and solubilizes the S-59 and photoproducts. The supernatant from the sample preparation was then analyzed on a C-18 reverse phase column with a gradient of increasing methanol in KH2PO4 buffer. The major peaks were detected by optical absorbance.
Following illumination with 3.0 J/cm^2 UVA of a PC to which 15.2 mg S-59 had been added, the treated PC was incubated with the RD (contained within a PL 2410 Plastic container, Baxter) for 8 hours. Samples of the treated PC were then taken and subjected to HPLC for detection of residual S-59 and S-59 photoproducts. […] The Limit of Quantitation (LOQ) for the HPLC assay was 0.3 μM S-59.
The data described above indicate that the levels of residual photoproducts D and E are higher than levels of residual S-59 even thought the initial levels of D and E in the illuminated PC were much lower than S-59. […] The PC was assayed for unbound photoproducts using the HPLC assay discussed above, which quantifies the photoproducts present both within the platelets and in the plasma/PAS III mixture. […]

As to `Cc1oc2c(C)c3oc(=O)cc(C)c3cc2c1CN` [AMT, 4′-Aminomethyl-4,5′,8-trimethylpsoralen, reference compound], the “revertant colonies per plate” value in series [1] (TA97a + S9, 0.1 μg/plate) was −23; in series [1] (TA97a + S9, 0.5 μg/plate), 32; in series [1] (TA97a + S9, 1 μg/plate), 32; in series [1] (TA97a + S9, 5 μg/plate), 149; in series [1] (TA97a − S9, 0.1 μg/plate), 14; in series [1] (TA97a − S9, 0.5 μg/plate), 9. Besides, the “revertant colonies per plate” value turned out to be 54 in series [1] (TA97a − S9, 1 μg/plate) and 73 in series [1] (TA97a − S9, 5 μg/plate).
Regarding `Cc1oc2c(C)c3oc(=O)cc(C)c3cc2c1COCCN` [Compound 2, 4′-(4-amino-2-oxa)butyl-4,5′,8-trimethylpsoralen], the “revertant colonies per plate” value in series [2] (TA100 + S9, 5 μg/plate) is given as −18; in series [2] (TA100 + S9, 10 μg/plate) it was 1; in series [2] (TA100 + S9, 50 μg/plate), 115; in series [2] (TA100 + S9, 100 μg/plate) it was 96; in series [2] (TA100 − S9, 5 μg/plate), 103; in series [2] (TA100 − S9, 10 μg/plate) it was 46. The “revertant colonies per plate” value in series [2] (TA100 − S9, 50 μg/plate) is listed as 182; in series [2] (TA100 − S9, 100 μg/plate), 121. Besides, the “reduction in platelet aggregation from the day 1 control” value in series [3] is reported as “approximately 8%”. The “Concentration Remaining (Average ± S.D.)” value in series [4] (PC with 15.2 mg S-59, 3.0 J/cm^2 UVA, incubated 8 hours with RD containing Dowex XUS-43493, LOQ 0.3 μM) is 270 ± 50 nM. The “initial 15.2 mg of S-59 removed from PCs” value in series [4] (following illumination and incubation with the RD) was “greater than 99%”.
